Data reported in US4877881A, “Process of preparing pyrazoles, isoxazoles and analogs thereof having activity as 5-lipoxygenase inhibitors” (Warner-Lambert Company, priority 1988, dated 1989).

Assays:
cyclooxygenase = biological target: T1, cyclooxygenase (Bos taurus, UniProt O62664); assay: Cyclooxygenase Enzyme Assay, bovine seminal vesicle (BSV), PGE2 formation; assay type: biochemical; conditions: bovine seminal vesicle powder; 100 μM arachidonic acid, 20 minutes
T1 construct: The assay consists of incubating 2 mg bovine seminal vesicle powder; from tissue; host or cells: bovine seminal vesicle powder
T1 sequence (O62664 25-600): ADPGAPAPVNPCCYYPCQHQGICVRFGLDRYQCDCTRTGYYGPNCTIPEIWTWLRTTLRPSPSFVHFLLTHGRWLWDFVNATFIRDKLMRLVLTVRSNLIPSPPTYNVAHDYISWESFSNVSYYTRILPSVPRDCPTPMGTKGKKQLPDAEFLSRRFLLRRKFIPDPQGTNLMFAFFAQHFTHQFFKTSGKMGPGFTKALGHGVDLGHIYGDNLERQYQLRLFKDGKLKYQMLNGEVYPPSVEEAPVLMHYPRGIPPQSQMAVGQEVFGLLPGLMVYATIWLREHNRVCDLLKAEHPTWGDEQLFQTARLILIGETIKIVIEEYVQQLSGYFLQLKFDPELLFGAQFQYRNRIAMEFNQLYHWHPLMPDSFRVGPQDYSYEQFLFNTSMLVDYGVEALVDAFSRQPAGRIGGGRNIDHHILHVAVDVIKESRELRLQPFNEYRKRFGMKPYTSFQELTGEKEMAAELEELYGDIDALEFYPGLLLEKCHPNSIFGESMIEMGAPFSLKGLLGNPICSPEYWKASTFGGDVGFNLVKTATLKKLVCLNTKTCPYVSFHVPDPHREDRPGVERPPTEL
Experimental: Cyclooxygenase Enzyme Assay
Additionally, inhibition of cyclooxygenase is considered a measure of relevance to the pathophysiology of the above noted diseases.
The assay consists of incubating 2 mg bovine seminal vesicle powder with 2 mM epinephrine, 2.5 mM reduced glutathione, 100 μM arachidonic acid, and the test agent for 20 minutes. The reaction mixture is acidified and extracted with ethyl acetate (3×1.0 ml) and the pooled extract is evaporated to dryness using a Speed Vac Concentrator or under a stream of nitrogen. The residue was dissolved in ethanol.

5-lipoxygenase = biological target: T2, 5-lipoxygenase (Homo sapiens, UniProt P09917); assay: 5-Lipoxygenase Assay Using Isolated Human Leukocytes (5LOA2), 5-HETE formation; assay type: cell-based; conditions: inhibition of 5-HETE formation, arachidonic acid 20 μM, A23187 10 μM, read-out: 5-LO(IC50 in μM)
T2 construct: The formation of 5-HETE in human leukocytes is considered a measure of 5-lipoxygenase activity; endogenous in cells; host or cells: leukocytes isolated from fresh human blood
T2 sequence (P09917 1-674): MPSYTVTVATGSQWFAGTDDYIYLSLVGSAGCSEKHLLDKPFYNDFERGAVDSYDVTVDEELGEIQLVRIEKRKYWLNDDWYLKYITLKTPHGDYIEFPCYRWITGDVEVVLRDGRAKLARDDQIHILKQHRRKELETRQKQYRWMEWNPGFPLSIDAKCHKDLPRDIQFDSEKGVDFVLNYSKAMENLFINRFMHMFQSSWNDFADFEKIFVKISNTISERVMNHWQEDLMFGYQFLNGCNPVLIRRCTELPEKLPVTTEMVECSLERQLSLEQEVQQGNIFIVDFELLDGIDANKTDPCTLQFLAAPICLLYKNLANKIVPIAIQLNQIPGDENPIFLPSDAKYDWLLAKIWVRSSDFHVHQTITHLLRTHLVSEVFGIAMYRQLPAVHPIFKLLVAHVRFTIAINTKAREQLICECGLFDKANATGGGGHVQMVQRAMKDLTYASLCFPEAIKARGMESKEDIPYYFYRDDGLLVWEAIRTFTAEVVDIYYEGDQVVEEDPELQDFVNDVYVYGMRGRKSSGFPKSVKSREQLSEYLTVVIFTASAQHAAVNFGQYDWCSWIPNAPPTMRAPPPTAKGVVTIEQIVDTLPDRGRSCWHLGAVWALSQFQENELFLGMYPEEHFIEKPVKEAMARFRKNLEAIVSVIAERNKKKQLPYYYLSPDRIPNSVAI
Experimental: 5-Lipoxygenase Assay Using Isolated Human Leukocytes (5LOA2)
The formation of 5-HETE in human leukocytes is considered a measure of 5-lipoxygenase activity. The protocol is described in the following.
Fresh heparinized or EDTA treated human blood is mixed with 6% dextran-3% dextrose in isotonic saline in the ratio 0.25 ml dextran solution per 1.0 ml blood. After mixing the blood is allowed to sit at room temperature for about 90 minutes while the RBC's settle. During this period, the plasma is removed with a plastic pipette to nalgens tubes.
The pellet, consisting of leukocytes and erythrocytes, is treated with 10 ml 0.87% ammonium chloride at room temperature for four minutes, lysing the red cells. At the end of four minutes the cells are diluted with a 2x volume of phosphate buffered saline, pH 7.4, and centrifuged for ten minutes. The cells are washed three times with the phosphate buffered saline. Any of the pelleted cell matter which is not easily resuspended is discarded during the washings--the material contains platelets (12-lipoxygenase activity).
After washing, the cells are resuspended in phosphate buffered saline containing 1.0 mM 'calcium and 0.5 mM magnesium. After counting, the cells are diluted to 1.5-2.0×10^7 leukocytes per milliliter.
To each polypropylene reaction tube is added 0.48 ml leukocytes in Ca-Mg phosphate buffered saline, pH 7.4; 1-5 μl test compound dissolved in DMSO and buffer; or DMSO for control tubes.
The tubes preincubate at 37° C. for five minutes.
The reaction is started by adding 20 μl of the following, 0.5 μl, 20 mM arachidonic acid--final concentration=20 μM; 1 μl, 5 mM calcium ionophore A23187--final concentration=10 μM; and 18.5 μl buffer.
The reaction proceeds for five minutes, then is stopped by adding 0.5 ml, 0.5 mM ice-cold Tris buffer, pH 8.0. The tubes are chilled on ice for ten minutes and then extracted three times with a total of 3.5 ml ethyl acetate (3.0 ml removed).
The tubes can be stored at this point. For extended storage, the tubes should be filled with nitrogen.
The ethyl acetate is evaporated with a Sorvall Speed-Vac. The residue is dissolved in ethanol. The tubes can also be stored at this point at -20° C. under nitrogen.
A portion of the ethanol solution is injected into the HPLC system for 5-HETE quantitation.
Injections are made automatically with a Waters WISP 710B. The pump is a Spectra Physics SP8700. […] An RP C-18 column is used. The solvent system is isocratic; the solvent is 70% methanol and 30% 0.01M sodium acetate, pH 5.7, pumped at 1.0 ml/min. […] Using a 15 cm Alltech Nucleosil C-18 5 μM column provides for a sample turnaround time of about 16 minutes.

Structure (SMILES)	IC50 (cyclooxygenase) [µM]	IC50 (5-lipoxygenase) [µM]
COc1cc(CCc2cc(CCc3ccc(O)c(OC)c3)[nH]n2)ccc1O [Example 2, 3,5-Bis[β-(4'-hydroxy-3'-methoxyphenyl)ethyl]pyrazole]	67	53
Oc1ccc(CCc2cc(CCc3ccc(O)cc3)[nH]n2)cc1 [Example 3, 3,5-Bis[β-(4'-hydroxyphenyl)ethyl]pyrazole]	44	15
CCc1cc(C=Cc2ccc(O)c(OC)c2)n[nH]1 [Example 9, 3-[β-(4'-Hydroxy-3'-methoxyphenyl)ethenyl]-5-ethylpyrazole]	56	7.5

These reach a lower IC50 (cyclooxygenase). Values come first.

IC50 (cyclooxygenase) [µM]	IC50 (5-lipoxygenase) [µM]	Structure (SMILES)
40	4.3	COc1cc(C=Cc2cc(-c3ccccc3)[nH]n2)ccc1O [Example 4, 3-[β-(4'-Hydroxy-3'-methoxyphenyl)ethenyl]-5-phenylpyrazole]
31	29	COc1cc(CCc2cc(CCc3ccc(O)c(OC)c3)on2)ccc1O [Example 12, 3,5-Bis[β-(4'-hydroxy-3'-methoxyphenyl)ethyl]isoxazole]
